Measured values from patent US12540150B1, “Fluorogenic probe using a Mislow-Evans rearrangement for real-time imaging of hydrogen peroxide” (University of Pittsburgh—Of the Commonwealth System of …, priority 2020, dated 2026).
Several values for one entry are separate records, joined by “and”; a condition that tells them apart may be missing. Equal entries are not always repeated.

Columns and labels:
[1] = Selectivity of 1: reaction with O2^·−; conditions: for Fluorescence Intensity: 15 min
Experimental: (§1) Following the concentration dependence studies, the selectivity of 1 was assessed against O2^·−, ^1O2, ·OH, ClO^−, ONOO^−, 'BuOOH, NO3^−, NO2, and NO·. […] The production of some of these ROS required H2O2 as a reagent or generated H2O2 as a product, for which we carefully performed control experiments as detailed below. For example, a solution of 100 μM 1 in ethanol (20 μL) was added to 5:95 methanol/50 mM phosphate pH 7 buffer (140 μL). […] A control containing 100 μM 1 in ethanol (20 μL), 5:95 methanol/50 mM phosphate pH 7 buffer (160 μL), and 700 mM H2O2 (20 μL) was also generated. The solutions were allowed to incubate at 25° C. for 15 min prior to measuring fluorescence. […] Therefore, 1 is selective for H2O2 over O2^·−.

[2] = Selectivity of 1: reaction with NO2^−; conditions: for Fluorescence: change over first 15 min
Experimental: It was then sought to determine whether RNS would react with 1 to produce fluorescence. The probe 1 was first exposed to NO2^− at various concentrations. NaNO2 (97.0 mg) was dissolved in ultrapure water (2.00 mL). […] A solution of 100 μM 1 in ethanol (20 μL) was added to 5:95 methanol/50 mM phosphate pH 7 buffer (160 μL). The NaNO2 or H2O2 solutions (20 μL) were added to the solution containing 1 and the fluorescence intensity was measured immediately and again after incubation at 25° C. for 15 min. The fluorescence change over the first 15 min was reported for NO2^− in FIG. 20 and Table 11.

[3] = Selectivity of 1: reaction with ·OH; conditions: for Fluorescence: 40 min minus 0 min
Experimental: The reactivity of 1 with ·OH was also investigated. ·OH was generated through the reaction of FeSO4·7H2O with H2O2. A solution of 100 μM 1 in ethanol (20 μL) was added to 5:95 methanol/50 mM phosphate pH 7 buffer (140 μL). Water or 104 U/mL catalase (20 μL) was added to the mixture. FeSO4·7H2O (27.4 mg) was added to ultrapure water (2.00 mL). This solution was diluted to 20 μM, 200 μM, and 2.00 mM. H2O2 was diluted to 200 μM and 2.00 mM. Equal volumes of FeSO4·7H2O solution and H2O2 were added together, and an aliquot (20 μL) was immediately transferred to the solution containing 1. The fluorescence intensity was measured immediately and again after incubation at 25° C. for 40 min. […] The Fluorescence values in Table 8 are the fluorescence at 40 min minus the fluorescence at 0 min.

[4] = Selectivity of 1 against various ROS and RNS (FIG. 14B); conditions: O2^·−, ^1O2, ·OH, ClO^−, ONOO^−, tBuOOH, NO3^−, NO2, NO·
Experimental: as §1

[5] = Selectivity of 1: reaction with ONOO^−; conditions: for Fluorescence Intensity: pH 7, 25° C., 15 min
Experimental: Next, it was tested whether OCl^− and ONOO^− (peroxynitrite), would react with 1. A solution of 0, 1, 10, or 22 μM ONOO— in 0.3 M NaOH (20 μL) or 1, 10, 100, or 1000 μM NaOCl in water (20 μL) was added to the wells of a black 96-well plate. A solution of 10 μM 1 in DMSO (560 μL) and 5:95 MeCN/1.2 M phosphate pH 7 buffer (4.48 mL) was made; this solution (180 μL) was transferred to each of the wells. The samples were allowed to incubate at 25° C. for 15 min before the fluorescence was measured. […] This may be attributed to trace amounts of H2O2 in the ONOO^− solution.

[6] = Selectivity of 1: reaction with tBuOOH; conditions: for Fluorescence Intensity: pH 7, 25° C., 15 min
Experimental: 'BuOOH was also tested for reactivity with 1. A solution of 5:95 MeCN/50 mM phosphate pH 7 buffer (160 μL) was added to the wells of a black 96-well plate. 10 μM 1 in DMSO (20 μL) was added to each well. 0 mM H2O2 in water (20 μL) or 0, 10, or 100 μM tBuOOH in DMSO (20 μL) were then added to the wells.

[7] = Stability of 1 under ambient conditions by 1H NMR; assay type: physicochemical; conditions: room temperature, in air
Description: Since organic selenides are prone to oxidation in air, the stability of 1 under ambient conditions was investigated. To study the stability of 1, the ^1H NMR spectra of 1 in DMSO-d6 were obtained at specified intervals (days 1, 7, 14, 21, 30 and 60). The solution was left at room temperature and in air throughout the entire period.
[drawing 26] were observed. […] Even so, the compound was quite resistant to oxidative decomposition up to 60 days as manifested by the presence of only less than 10% acrolein.

Oc1ccc2c(c1)Oc1cc(O/C=C/C[Se]c3ccccc3)ccc1[C@@]21OCc2ccccc21 [Compound 1, (S,E)-6′-((3-(Phenylselanyl)prop-1-en-1-yl)oxy)-3H-spiro[isobenzofuran-1,9′-xanthen]-3′-ol]
reaction with O2^·− [1]: did not react
Fluorescence Intensity ([1]; KO2 + 10 U/mL catalase, pH 7, 25° C.): 104,768 and 72,151 and 98,514
Fluorescence Intensity ([1]; KO2 + 10^4 U/mL catalase, pH 7, 25° C.): 63,553 and 41,950 and 67,009
Fluorescence Intensity ([1]; KO2, phosphate pH 7, 25° C.): 106,099 and 92,938 and 99,300
reaction with NO2^− [2]: did not react
Fluorescence ([2]; 0 μM NO2^− or H2O2, pH 7, 25° C.): 24,359 and 26,870 and 26,226
Fluorescence ([2]; 0.1 μM H2O2): 58,172 and 52,104 and 52,249
Fluorescence ([2]; 0.1 μM NO2^−): 31,075 and 36,429 and 27,504
Fluorescence ([2]; 1 μM H2O2): 266,770 and 242,313 and 222,834
Fluorescence ([2]; 1 μM NO2^−): 26,768 and 31,470 and 33,004
reaction with FeSO4 or ·OH [3]: neither FeSO4 nor the ·OH reacted with the probe
Fluorescence ([3]; catalase, FeSO4 0 μM, 0 μM H2O2): 31,506 and 41,340 and 38,159
Fluorescence ([3]; catalase, FeSO4 1 μM, 0 μM H2O2): 28,688 and 24,359 and 45,310
Fluorescence ([3]; catalase, FeSO4 1 μM, 100 μM H2O2): 38,285 and 34,591 and 26,790
Fluorescence ([3]; catalase, FeSO4 10 μM, 0 μM H2O2): 24,822 and 33,920 and 47,376
Fluorescence ([3]; catalase, FeSO4 10 μM, 100 μM H2O2): 32,300 and 42,724 and 50,635
Fluorescence ([3]; catalase, FeSO4 100 μM, 0 μM H2O2): 35,828 and 18,194 and 20,321
Fluorescence ([3]; catalase, FeSO4 100 μM, 10 μM H2O2): 20,486 and 26,765 and 15,423
Fluorescence ([3]; catalase, FeSO4 100 μM, 100 μM H2O2): 46,232 and 46,921 and 52,666
Fluorescence ([3]; no additive, FeSO4 0 μM, 0 μM H2O2): 50,173 and 48,124 and 44,143
Fluorescence ([3]; no additive, FeSO4 0 μM, 10 μM H2O2): 43,929 and 46,186 and 43,989
Fluorescence ([3]; no additive, FeSO4 0 μM, 100 μM H2O2): 85,271 and 94,742 and 95,713
Fluorescence ([3]; no additive, FeSO4 1 μM, 0 μM H2O2): 44,775 and 42,847 and 41,775
Fluorescence ([3]; no additive, FeSO4 1 μM, 10 μM H2O2): 49,425 and 47,262 and 44,251
Fluorescence ([3]; no additive, FeSO4 1 μM, 100 μM H2O2): 86,594 and 103,905 and 91,684
Fluorescence ([3]; no additive, FeSO4 10 μM, 0 μM H2O2): 43,299 and 42,365 and 40,214
Fluorescence ([3]; no additive, FeSO4 10 μM, 10 μM H2O2): 42,933 and 40,908 and 38,283
Fluorescence ([3]; no additive, FeSO4 10 μM, 100 μM H2O2): 91,049 and 90,712 and 94,948
Fluorescence ([3]; no additive, FeSO4 100 μM, 0 μM H2O2): 32,709 and 41,351 and 31,615
Fluorescence ([3]; no additive, FeSO4 100 μM, 10 μM H2O2): 56,260 and 46,281 and 43,358
Fluorescence ([3]; no additive, FeSO4 100 μM, 100 μM H2O2): 99,384 and 99,391 and 95,778
reaction with other ROS and RNS relative to H2O2 [4]: little reaction was observed
fluorescence change with increasing ONOO^− concentration [5]: slight increase in fluorescence intensity
Fluorescence Intensity ([5]; 100 nM ONOO^−): 23,606 and 21,961 and 20,229
Fluorescence Intensity ([5]; 1.0 μM ONOO^−): 46,271 and 39,358 and 35,209
Fluorescence Intensity ([5]; 2.2 μM ONOO^−−): 63,954 and 56,351 and 61,987
fluorescence with tBuOOH [6]: did not produce fluorescence even at 10 μM
Fluorescence Intensity ([6]; 10 μM ^tBuOOH): 31,650 and 28,922 and 33,363
Fluorescence Intensity ([6]; H2O2): 277,013 and 296,506 and 250,145
Fluorescence Intensity ([6]; no ROS): 34,525 and 36,401 and 39,836
half-life ([7]; DMSO-d6 solution, read-out: half-life of cis-trans isomerization of the enol ether (converted)): 60 days
acrolein present (oxidative decomposition) ([7]; [D6]DMSO, up to 60 days): less than 10%
